Laboratory results from patent publication US20240360134A1, “PYRAZOLOPYRIMIDINES AND THEIR USES AS PDGFR INHIBITORS” (priority 2021, published 2024).
Read-outs that look alike come from different tables or passages of the source.

Tests used:
[1] = target: Tb-labeled inactive PDGFRβ (Homo sapiens (Human), UniProt P09619); test: biochemical; format: binding
[2] = target: His6-TEV-PDGFRβ (557-1016) (Homo sapiens (Human), UniProt P09619); test: PDGFRβ HTRF Assay; format: biochemical
PDGFRβ = PDGFRβ (Rattus norvegicus (Rat), UniProt Q05030); test: PDGFRβ Cellular Assay (PDGFRb P-Y751 HTRF, PDGF-BB stimulated A10 cells); format: cell-based
PDGFRβ, sequence (Q05030 whole entry, looked up): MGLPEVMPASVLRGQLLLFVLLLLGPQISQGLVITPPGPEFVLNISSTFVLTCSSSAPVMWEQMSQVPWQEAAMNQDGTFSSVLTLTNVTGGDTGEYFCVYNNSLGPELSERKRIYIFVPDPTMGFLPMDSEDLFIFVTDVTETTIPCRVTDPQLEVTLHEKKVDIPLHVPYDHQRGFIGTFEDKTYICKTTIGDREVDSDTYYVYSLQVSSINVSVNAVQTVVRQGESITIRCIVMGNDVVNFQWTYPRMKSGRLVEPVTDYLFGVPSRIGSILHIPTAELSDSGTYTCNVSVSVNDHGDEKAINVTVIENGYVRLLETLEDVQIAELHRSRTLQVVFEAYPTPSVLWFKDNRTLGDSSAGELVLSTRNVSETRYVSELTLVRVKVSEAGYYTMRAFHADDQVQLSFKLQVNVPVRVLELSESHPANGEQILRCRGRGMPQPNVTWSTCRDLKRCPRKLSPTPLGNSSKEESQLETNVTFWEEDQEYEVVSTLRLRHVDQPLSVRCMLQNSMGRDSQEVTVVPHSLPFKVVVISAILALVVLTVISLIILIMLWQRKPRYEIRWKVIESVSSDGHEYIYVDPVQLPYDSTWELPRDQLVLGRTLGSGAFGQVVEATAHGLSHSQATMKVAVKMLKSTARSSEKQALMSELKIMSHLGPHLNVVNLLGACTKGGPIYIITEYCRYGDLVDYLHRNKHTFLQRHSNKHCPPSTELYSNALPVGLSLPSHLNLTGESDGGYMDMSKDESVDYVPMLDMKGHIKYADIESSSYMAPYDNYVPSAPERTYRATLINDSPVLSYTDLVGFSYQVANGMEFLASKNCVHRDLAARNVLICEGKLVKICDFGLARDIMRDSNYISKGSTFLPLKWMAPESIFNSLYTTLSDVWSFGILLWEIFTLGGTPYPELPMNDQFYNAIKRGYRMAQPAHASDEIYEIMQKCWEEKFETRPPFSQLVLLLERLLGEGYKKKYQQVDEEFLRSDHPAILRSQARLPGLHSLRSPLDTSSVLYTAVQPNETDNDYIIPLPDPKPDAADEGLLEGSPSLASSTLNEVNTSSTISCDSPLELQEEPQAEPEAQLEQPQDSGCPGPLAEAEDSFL
In short: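 Rat A10 cells plated overnight were treated with compound for 3 h, stimulated with rat PDGF-BB (working stock 100 ng/mL in 10% FBS medium) for 10 min, then lysed.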

VEGFR2, unphosphorylated = VEGFR2, unphosphorylated (Homo sapiens (Human), UniProt P35968); test: VEGFR ADP GLO assay; format: biochemical; conditions: 5 nM VEGFR2, 1.2 mM ATP, 1 mg/mL Srctide, 180 min
VEGFR2, unphosphorylated, sequence (P35968 whole entry, looked up): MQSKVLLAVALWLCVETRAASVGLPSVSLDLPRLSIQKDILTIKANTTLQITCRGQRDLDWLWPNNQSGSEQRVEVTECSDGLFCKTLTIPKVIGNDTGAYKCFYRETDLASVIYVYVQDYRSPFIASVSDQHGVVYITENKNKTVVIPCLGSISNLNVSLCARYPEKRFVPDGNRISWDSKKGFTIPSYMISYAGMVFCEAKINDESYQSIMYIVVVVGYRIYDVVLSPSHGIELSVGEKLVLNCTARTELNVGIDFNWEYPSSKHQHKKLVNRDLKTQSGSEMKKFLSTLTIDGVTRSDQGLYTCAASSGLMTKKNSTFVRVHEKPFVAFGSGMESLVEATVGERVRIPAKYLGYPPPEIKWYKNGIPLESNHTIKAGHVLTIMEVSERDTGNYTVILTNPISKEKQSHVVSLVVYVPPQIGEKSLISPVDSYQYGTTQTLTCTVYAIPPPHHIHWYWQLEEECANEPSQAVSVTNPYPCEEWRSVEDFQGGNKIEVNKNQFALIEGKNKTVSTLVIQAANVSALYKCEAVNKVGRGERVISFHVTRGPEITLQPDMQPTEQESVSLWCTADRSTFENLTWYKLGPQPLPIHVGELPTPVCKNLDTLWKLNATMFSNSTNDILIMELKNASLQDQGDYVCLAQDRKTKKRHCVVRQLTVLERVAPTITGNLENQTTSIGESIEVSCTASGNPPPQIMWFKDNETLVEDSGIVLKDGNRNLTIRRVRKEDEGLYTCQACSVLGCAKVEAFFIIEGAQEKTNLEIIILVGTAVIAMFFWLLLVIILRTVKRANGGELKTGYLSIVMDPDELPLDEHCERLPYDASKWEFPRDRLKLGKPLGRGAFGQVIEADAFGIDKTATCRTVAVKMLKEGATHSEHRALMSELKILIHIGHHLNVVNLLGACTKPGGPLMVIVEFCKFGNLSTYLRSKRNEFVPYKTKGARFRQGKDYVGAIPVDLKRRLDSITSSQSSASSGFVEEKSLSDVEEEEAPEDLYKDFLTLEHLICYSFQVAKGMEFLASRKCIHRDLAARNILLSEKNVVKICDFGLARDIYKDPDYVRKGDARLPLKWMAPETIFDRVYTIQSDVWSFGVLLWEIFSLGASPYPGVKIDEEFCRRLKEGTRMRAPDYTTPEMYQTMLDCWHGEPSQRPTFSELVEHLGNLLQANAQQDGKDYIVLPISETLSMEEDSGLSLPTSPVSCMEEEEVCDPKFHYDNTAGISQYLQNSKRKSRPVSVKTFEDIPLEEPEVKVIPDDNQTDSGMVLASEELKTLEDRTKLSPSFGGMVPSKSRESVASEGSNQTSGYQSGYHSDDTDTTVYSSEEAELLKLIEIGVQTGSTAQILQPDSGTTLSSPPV
In short: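 Luminescent ADP detection after a 180-min room-temperature reaction of srctide plus ATP (2 mg/mL and 2.4 mM in 2× mix) in pH 7.5 HEPES buffer with DTT, Pluronic and ovalbumin. Compounds, 11 points from 10 µM, first pre-incubated 30 min with enzyme (2× mix 10 nM). IC50s fitted after scaling between DMSO and 1 µM TAK-593 controls.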

[3] = 800 μM ATP, 0.5 μM TK-substrate biotin peptide, 30 min pre-incubation, 3 hours reaction, read-out: PDGFR HTRF IC50
[4] = A10 cells, 3 hours compound, 15 ng/mL PDGFbb for 10 minutes, read-out: PDGFR Cellular IC50

Tb-labeled inactive PDGFRβ, sequence (P09619 whole entry, looked up): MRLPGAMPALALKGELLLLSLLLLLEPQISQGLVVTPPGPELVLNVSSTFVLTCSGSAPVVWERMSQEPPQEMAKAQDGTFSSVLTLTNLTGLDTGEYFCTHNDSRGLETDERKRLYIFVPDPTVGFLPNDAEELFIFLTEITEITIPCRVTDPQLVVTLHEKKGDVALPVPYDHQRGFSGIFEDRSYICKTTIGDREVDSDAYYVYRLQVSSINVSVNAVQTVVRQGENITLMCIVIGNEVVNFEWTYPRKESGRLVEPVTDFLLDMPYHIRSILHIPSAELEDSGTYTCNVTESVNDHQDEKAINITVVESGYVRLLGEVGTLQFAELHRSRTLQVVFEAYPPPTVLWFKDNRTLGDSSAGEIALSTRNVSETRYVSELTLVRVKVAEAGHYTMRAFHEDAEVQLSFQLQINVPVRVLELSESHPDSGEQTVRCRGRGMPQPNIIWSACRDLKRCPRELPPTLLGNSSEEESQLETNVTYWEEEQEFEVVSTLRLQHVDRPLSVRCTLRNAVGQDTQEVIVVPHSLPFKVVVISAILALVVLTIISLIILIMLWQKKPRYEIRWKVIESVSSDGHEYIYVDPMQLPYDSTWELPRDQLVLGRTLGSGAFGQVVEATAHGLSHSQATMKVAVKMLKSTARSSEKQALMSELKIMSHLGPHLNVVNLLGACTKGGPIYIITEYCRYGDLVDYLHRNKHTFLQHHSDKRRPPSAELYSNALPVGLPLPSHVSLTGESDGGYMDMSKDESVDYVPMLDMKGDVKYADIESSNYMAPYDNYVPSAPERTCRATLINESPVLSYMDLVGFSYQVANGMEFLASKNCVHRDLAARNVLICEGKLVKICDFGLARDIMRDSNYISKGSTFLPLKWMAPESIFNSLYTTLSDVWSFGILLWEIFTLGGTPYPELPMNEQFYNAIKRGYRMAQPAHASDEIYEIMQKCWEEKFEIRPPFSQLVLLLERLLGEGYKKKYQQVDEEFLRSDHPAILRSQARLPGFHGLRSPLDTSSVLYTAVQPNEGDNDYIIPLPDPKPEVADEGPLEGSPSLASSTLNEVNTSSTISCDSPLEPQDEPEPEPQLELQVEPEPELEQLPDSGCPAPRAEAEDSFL
His6-TEV-PDGFRβ (557-1016), sequence (P09619 whole entry, looked up): as above

SMILES: Cc1ccc(C(=O)NCCN2CCCC2(C)C)cc1Nc1nn(C)c2nc(Nc3cnn(C)c3)ncc12 [Example 66, N-(2-(2,2-dimethylpyrrolidin-1-yl)ethyl)-4-methyl-3-((1-methyl-6-((1-methyl-1H-pyrazol-4-yl)amino)-1H-pyrazolo[3,4-d]pyrimidin-3-yl)amino)benzamide]
- IC50 ([1]; read-out: PDGFR Lantha IC50): 2.3 nM
- IC50 [2, 3]: 0.28 nM
- IC50 (PDGFRβ; [4]): 3.4 nM
- IC50 (VEGFR2, unphosphorylated): 1330 nM

SMILES: Cc1ccc(C(=O)NCCN2CCC3(CC3)C2)cc1Nc1nn(C)c2nc(Nc3cnn(C)c3)ncc12 [Example 67, N-(2-(5-azaspiro[2.4]heptan-5-yl)ethyl)-4-methyl-3-((1-methyl-6-((1-methyl-1H-pyrazol-4-yl)amino)-1H-pyrazolo[3,4-d]pyrimidin-3-yl)amino)benzamide]
- IC50 ([1]; read-out: PDGFR Lantha IC50): 1.9 nM
- IC50 [2, 3]: 0.22 nM
- IC50 (PDGFRβ; [4]): 9.8 nM
- IC50 (VEGFR2, unphosphorylated): 1660 nM

SMILES: Cc1ncc(C(=O)NCCN2[C@H](C)CCC[C@@H]2C)cc1Nc1nn(C)c2cc(Nc3cnn(C)c3)ncc12 [Example 68, N-(2-((2S,6R)-2,6-dimethylpiperidin-1-yl)ethyl)-6-methyl-5-((1-methyl-6-((1-methyl-1H-pyrazol-4-yl)amino)-1H-pyrazolo[4,3-c]pyridin-3-yl)amino)nicotinamide]
- IC50 [1]: 33.9 nM
- IC50 [2]: 1.98 nM
- IC50 (PDGFRβ): 112 nM
- IC50 (VEGFR2, unphosphorylated): > 7500 nM

SMILES: Cc1ncc(C(=O)NCCN2CCCC2(C)C)cc1Nc1nn(C)c2cc(Nc3cnn(C)c3)ncc12 [Example 69, N-(2-(2,2-dimethylpyrrolidin-1-yl)ethyl)-6-methyl-5-((1-methyl-6-((1-methyl-1H-pyrazol-4-yl)amino)-1H-pyrazolo[4,3-c]pyridin-3-yl)amino)nicotinamide]
- IC50 ([1]; read-out: PDGFR Lantha IC50): 48.4 nM
- IC50 [2, 3]: 1.27 nM
- IC50 (PDGFRβ; [4]): 36.9 nM
- IC50 (VEGFR2, unphosphorylated): > 7500 nM

SMILES: Cc1ncc(NC(=O)CN2CCCC2(C)C)cc1Nc1nn(C)c2nc(Nc3cnn(C)c3)ncc12 [Example 70, 2-(2,2-dimethylpyrrolidin-1-yl)-N-(6-methyl-5-((1-methyl-6-((1-methyl-1H-pyrazol-4-yl)amino)-1H-pyrazolo[3,4-d]pyrimidin-3-yl)amino)pyridin-3-yl)acetamide]
- IC50 ([1]; read-out: PDGFR Lantha IC50): 1.8 nM
- IC50 [2, 3]: 0.2 nM
- IC50 (PDGFRβ; [4]): 0.9 nM
- IC50 (VEGFR2, unphosphorylated): 6170 nM

SMILES: Cc1ncc(NC(=O)CN2CC(C)(C)C2)cc1Nc1nn(C)c2nc(Nc3cnn(C)c3)ncc12 [Example 77, 2-(3,3-dimethylazetidin-1-yl)-N-(6-methyl-5-((1-methyl-6-((1-methyl-1H-pyrazol-4-yl)amino)-1H-pyrazolo[3,4-d]pyrimidin-3-yl)amino)pyridin-3-yl)acetamide]
- IC50 ([1]; read-out: PDGFR Lantha IC50): 1.9 nM
- IC50 [2, 3]: 0.24 nM
- IC50 (PDGFRβ; [4]): 2.4 nM
- IC50 (VEGFR2, unphosphorylated): 5110 nM

SMILES: CC[C@H]1COCCN1CCNC(=O)c1cnc(C)c(Nc2nn(C)c3nc(Nc4cnn(C)c4)ncc23)c1 [Example 81, (S)—N-(2-(3-ethylmorpholino)ethyl)-6-methyl-5-((1-methyl-6-((1-methyl-1H-pyrazol-4-yl)amino)-1H-pyrazolo[3,4-d]pyrimidin-3-yl)amino)nicotinamide]
- IC50 [1]: 2.6 nM
- IC50 [2]: 0.42 nM
- IC50 (PDGFRβ): 21.1 nM
- IC50 (VEGFR2, unphosphorylated): 2500 nM

SMILES: Cc1ncc(C(=O)NCCN2CCCC[C@H]2C)cc1Nc1nn(C)c2nc(Nc3cnn(C)c3)ncc12 [Example 82, (R)-6-methyl-5-((1-methyl-6-((1-methyl-1H-pyrazol-4-yl)amino)-1H-pyrazolo[3,4-d]pyrimidin-3-yl)amino)-N-(2-(2-methylpiperidin-1-yl)ethyl)nicotinamide]
- IC50 [1]: 1.7 nM
- IC50 [2]: 0.18 nM
- IC50 (PDGFRβ): 20.2 nM
- IC50 (VEGFR2, unphosphorylated): > 7500 nM

SMILES: COCCN(CCNC(=O)c1cnc(C)c(Nc2nn(C)c3nc(Nc4cnn(C)c4)ncc23)c1)C1CCC1 [Example 84, N-(2-(cyclobutyl(2-methoxyethyl)amino)ethyl)-6-methyl-5-((1-methyl-6-((1-methyl-1H-pyrazol-4-yl)amino)-1H-pyrazolo[3,4-d]pyrimidin-3-yl)amino)nicotinamide]
- IC50 ([1]; read-out: PDGFR Lantha IC50): 3.6 nM
- IC50 [2, 3]: 0.39 nM
- IC50 (PDGFRβ; [4]): 11.1 nM
- IC50 (VEGFR2, unphosphorylated): > 7500 nM

SMILES: Cc1ncc(C(=O)NCCN2CC3CCC2CC3)cc1Nc1nn(C)c2nc(Nc3cnn(C)c3)ncc12 [Example 85, N-(2-(2-azabicyclo[2.2.2]octan-2-yl)ethyl)-6-methyl-5-((1-methyl-6-((1-methyl-1H-pyrazol-4-yl)amino)-1H-pyrazolo[3,4-d]pyrimidin-3-yl)amino)nicotinamide]
- IC50 ([1]; read-out: PDGFR Lantha IC50): 1.7 nM
- IC50 [2, 3]: 0.27 nM
- IC50 (PDGFRβ; [4]): 71.3 nM
- IC50 (VEGFR2, unphosphorylated): 6600 nM

SMILES: Cc1ncc(C(=O)NCCN2CCC(C)(C)C2)cc1Nc1nn(C)c2nc(Nc3cnn(C)c3)ncc12 [Example 86, N-(2-(3,3-dimethylpyrrolidin-1-yl)ethyl)-6-methyl-5-((1-methyl-6-((1-methyl-1H-pyrazol-4-yl)amino)-1H-pyrazolo[3,4-d]pyrimidin-3-yl)amino)nicotinamide]
- IC50 ([1]; read-out: PDGFR Lantha IC50): 2.2 nM
- IC50 [2, 3]: 0.33 nM
- IC50 (PDGFRβ; [4]): 18.2 nM
- IC50 (VEGFR2, unphosphorylated): > 7500 nM

SMILES: Cc1ncc(C(=O)NCCN2CC(C)CC(C)C2)cc1Nc1nn(C)c2nc(Nc3cnn(C)c3)ncc12 (stereo not drawn) [Example 87, N-(2-(3,5-dimethylpiperidin-1-yl)ethyl)-6-methyl-5-((1-methyl-6-((1-methyl-1H-pyrazol-4-yl)amino)-1H-pyrazolo[3,4-d]pyrimidin-3-yl)amino)nicotinamide]
- IC50 ([1]; read-out: PDGFR Lantha IC50): 2.3 nM
- IC50 [2, 3]: 0.29 nM
- IC50 (PDGFRβ; [4]): 11.5 nM
- IC50 (VEGFR2, unphosphorylated): > 7500 nM

SMILES: CC[C@@H]1CN(CCNC(=O)c2cnc(C)c(Nc3nn(C)c4nc(Nc5cnn(C)c5)ncc34)c2)CCO1 [Example 88, (R)—N-(2-(2-ethylmorpholino)ethyl)-6-methyl-5-((1-methyl-6-((1-methyl-1H-pyrazol-4-yl)amino)-1H-pyrazolo[3,4-d]pyrimidin-3-yl)amino)nicotinamide]
- IC50 ([1]; read-out: PDGFR Lantha IC50): 3 nM
- IC50 [2, 3]: 0.35 nM
- IC50 (PDGFRβ; [4]): 22.3 nM
- IC50 (VEGFR2, unphosphorylated): > 7500 nM

SMILES: Cc1ncc(C(=O)NCCN2C3CCCC2CCC3)cc1Nc1nn(C)c2nc(Nc3cnn(C)c3)ncc12 [Example 89, N-(2-(9-azabicyclo[3.3.1]nonan-9-yl)ethyl)-6-methyl-5-((1-methyl-6-((1-methyl-1H-pyrazol-4-yl)amino)-1H-pyrazolo[3,4-d]pyrimidin-3-yl)amino)nicotinamide]
- IC50 ([1]; read-out: PDGFR Lantha IC50): 2.8 nM
- IC50 [2, 3]: 0.33 nM
- IC50 (PDGFRβ; [4]): 33.3 nM
- IC50 (VEGFR2, unphosphorylated): 4090 nM

SMILES: Cc1ncc(C(=O)NCCN2CCC3(CC3)C2)cc1Nc1nn(C)c2nc(Nc3cnn(C)c3)ncc12 [Example 90, N-(2-(5-azaspiro[2.4]heptan-5-yl)ethyl)-6-methyl-5-((1-methyl-6-((1-methyl-1H-pyrazol-4-yl)amino)-1H-pyrazolo[3,4-d]pyrimidin-3-yl)amino)nicotinamide]
- IC50 ([1]; read-out: PDGFR Lantha IC50): 1.8 nM
- IC50 [2, 3]: 0.25 nM
- IC50 (PDGFRβ; [4]): 27.2 nM
- IC50 (VEGFR2, unphosphorylated): > 7500 nM

SMILES: Cc1ncc(C(=O)NCCN2C[C@@H](C)O[C@@H](C)C2)cc1Nc1nn(C)c2nc(Nc3cnn(C)c3)ncc12 [Example 91, N-(2-(cis-2,6-dimethylmorpholino)ethyl)-6-methyl-5-((1-methyl-6-((1-methyl-1H-pyrazol-4-yl)amino)-1H-pyrazolo[3,4-d]pyrimidin-3-yl)amino)nicotinamide]
- IC50 ([1]; read-out: PDGFR Lantha IC50): 4.2 nM
- IC50 [2, 3]: 0.46 nM
- IC50 (PDGFRβ; [4]): 44.3 nM
- IC50 (VEGFR2, unphosphorylated): > 7500 nM

SMILES: COCCCN(CCNC(=O)c1cnc(C)c(Nc2nn(C)c3nc(Nc4cnn(C)c4)ncc23)c1)C1CCC1 [Example 93, N-(2-(cyclobutyl(3-methoxypropyl)amino)ethyl)-6-methyl-5-((1-methyl-6-((1-methyl-1H-pyrazol-4-yl)amino)-1H-pyrazolo[3,4-d]pyrimidin-3-yl)amino)nicotinamide]
- IC50 ([1]; read-out: PDGFR Lantha IC50): 3.8 nM
- IC50 [2, 3]: 0.44 nM
- IC50 (PDGFRβ; [4]): 10.6 nM
- IC50 (VEGFR2, unphosphorylated): > 7500 nM

SMILES: COCCN(CCNC(=O)c1cnc(C)c(Nc2nn(C)c3nc(Nc4cnn(C)c4)ncc23)c1)C1CCCC1 [Example 95, N-(2-(cyclopentyl(2-methoxyethyl)amino)ethyl)-6-methyl-5-((1-methyl-6-((1-methyl-1H-pyrazol-4-yl)amino)-1H-pyrazolo[3,4-d]pyrimidin-3-yl)amino)nicotinamide]
- IC50 ([1]; read-out: PDGFR Lantha IC50): 3.4 nM
- IC50 [2, 3]: 0.53 nM
- IC50 (PDGFRβ; [4]): 9.9 nM
- IC50 (VEGFR2, unphosphorylated): > 7500 nM

SMILES: Cc1ncc(C(=O)NCCN(CCCO)C2CCCC2)cc1Nc1nn(C)c2nc(Nc3cnn(C)c3)ncc12 [Example 96, N-(2-(cyclopentyl(3-hydroxypropyl)amino)ethyl)-6-methyl-5-((1-methyl-6-((1-methyl-1H-pyrazol-4-yl)amino)-1H-pyrazolo[3,4-d]pyrimidin-3-yl)amino)nicotinamide]
- IC50 ([1]; read-out: PDGFR Lantha IC50): 2.8 nM
- IC50 [2, 3]: 0.43 nM
- IC50 (PDGFRβ; [4]): 139 nM
- IC50 (VEGFR2, unphosphorylated): > 7500 nM

SMILES: Cc1ncc(C(=O)NCCN(CCO)C2CCCC2)cc1Nc1nn(C)c2nc(Nc3cnn(C)c3)ncc12 [Example 97, N-(2-(cyclopentyl(2-hydroxyethyl)amino)ethyl)-6-methyl-5-((1-methyl-6-((1-methyl-1H-pyrazol-4-yl)amino)-1H-pyrazolo[3,4-d]pyrimidin-3-yl)amino)nicotinamide]
- IC50 ([1]; read-out: PDGFR Lantha IC50): 2.4 nM
- IC50 [2, 3]: 0.46 nM
- IC50 (PDGFRβ; [4]): 101 nM
- IC50 (VEGFR2, unphosphorylated): > 7500 nM

SMILES: CC(=O)Nc1cccc(Nc2ncc3c(Nc4cc(C(=O)NCCN5CCCC5(C)C)cnc4C)nn(C)c3n2)c1 [Example 98, 5-((6-((3-acetamidophenyl)amino)-1-methyl-1H-pyrazolo[3,4-d]pyrimidin-3-yl)amino)-N-(2-(2,2-dimethylpyrrolidin-1-yl)ethyl)-6-methylnicotinamide]
- IC50 ([1]; read-out: PDGFR Lantha IC50): 12 nM
- IC50 [2, 3]: 1.98 nM
- IC50 (PDGFRβ; [4]): 723 nM
- IC50 (VEGFR2, unphosphorylated): > 7500 nM
